# From patent EP2181589A1, “Neurotoxic sterol glycosides” (Shaw, Christopher Ariel, priority 2008, dated 2010)
# Where “and” joins values, the source holds several entries; their conditions need not be identical. Identical values can stand only once. Marks after values point to notes of the source that are not given here.
# How the values were obtained:
# CD-1 mice [1] = assay: Wire hang test; format: in vivo
# Procedure: (§1) Five-month old male CD-1 mice (30.1-35.7 g, 7.5 cm - 8.8 cm) were purchased from Charles River (Wilmington, MA). Adult mice were chosen to mimic the mean age of onset of ALS-PDC (Kurland, 1988; Kurland et al., 1994). Thirty mice for the SG study were randomly divided into 2 groups (14 control and 16 experimental animals). All animals were housed singly in a virus-free barrier facility in a room maintained at 22°C under a 12 hour light/dark cycle. The mice were provided ad libitum access to food and water.
# (§2) The synthetic SG was mixed with finely ground Purina Chow mouse pellets (Mouse Diet™, Purina) to create the experimental pellets with a SG content of 1000 µg per pellet. Dry materials were blended with a sterile silicon spatula. For every 5 g of standard feed, 2.5 mL of doubly-distilled water (dd)H2O was added and the dough was kneaded and round up into pellets. A single sterol glucoside containing pellet was placed in the feeding tray each morning before the addition of regular mouse chow (ad libitum). All experimental pellets were entirely consumed by the mice each day. Control mice were fed standard mouse chow pellets of identical weight with no additives. SG feeding was conducted daily for 15 weeks and mice were behaviorally monitored until sacrifice at 35 weeks (time point 1) or 52 weeks (time point 2).
# Wire hang: Neuromuscular strength was tested by the wire hang (or hanging wire) test (Wilson et al., 2003d; Wilson et al., 2004c; Wilson et al., 2005; Tabata et al., 2008). Both balance and grip strength are required for a mouse to keep its body suspended (Crawley, 2000). Mice were placed on a wire cage lid elevated 50 cm above a soft landing surface. The latency to fall off the wire (maximum 60 seconds) (Sango et al., 1996) was measured from the moment the wire apparatus was inverted (180°). Wire hang testing was conducted biweekly.
# CD-1 mice [2] = assay: Open field monitoring; format: in vivo; conditions: SG-fed vs control
# Procedure: as §1, §2
# Open field monitoring: Spontaneous activity in an open field is considered one of the most standardized general measures of motor function (Crawley, 2000). The open field test can also reveal stress response in animals (i.e. defensive burying or thigmotaxis) (Karl et al., 2003). Open field testing of each animal was conducted every two weeks. A single mouse was placed in one of four round open field arena/tubs (approximately 1 m diameter) to permit the testing of four animals per 5 minute trial. […] This in turn, increases the likelihood of detection of fear-based behavior (Crawley, 2000) and minimizes habituation of the animal to the open field (Crawley, 2000). Testing arenas were cleaned with 70% ethanol before the testing of each animal and with quatricide at the end of each testing session. Movements were recorded using a video camera mounted on the ceiling. Video clips were reviewed and were manually scored or automatically analysed on an automated video tracking software (Ethovision® 3.1, Noldus Information Technologies Inc., Leesburg, VA, USA). Scoring was done on videotaped sessions, rather than in-person at the time of testing to avoid the introduction of confounding variables by the presence of an observer in close proximity to the mice (Crawley, 2000).
# Heat shock protein-70 = Heat shock protein-70 immunofluorescence; format: in vivo, CD-1 mice; conditions: for Anti-Hsp-70 (VHLsc) / Anti-Hsp-70 (VHTsc): SG-fed vs control; for Anti-Hsp-70 (VHLsc): ventral horn lumbar spinal cord; for Anti-Hsp-70 (VHTsc): ventral horn thoracic spinal cord
# Procedure: as §2
# (§3) Tissue-mounted slides were processed for fluorescence microscopy as follows: Sections were rinsed in coplin jars for 45 minutes at room temperature (RT) in three changes of PBS. Sections were then incubated at RT for 30 minutes in a blocking permeabilization solution made of 5% normal goat serum (NGS), 5% normal rabbit serum (NRS) or 5% BlokHen II (Aves Labs, Inc., Tigard, OR), 0.05% Triton X-100 and PBS. Subsequently, the blocking solution was tipped off and the slides were rinsed in PBS for 2 minutes. Sections were then incubated overnight in a humidified chamber at 4°C with a PBS buffered solution that contained 1% NGS or 1% NRS, 1% bovine serum albumin (BSA) and one of the following primary antibodies: (a) rabbit anti-human/mouse ATF-3 (H-90) IgG (polyclonal, 1:500; Santa Cruz Biotechnology, Inc., Santa Cruz, CA), (b) anti-activated caspase-3 IgG (monoclonal, 1:250; Chemicon International, Temecula, CA) (see FIGURE 9), (c) goat antihuman/ mouse choline acetyl transferase (ChAT) IgG (polyclonal, 1:100; Chemicon International, Temecula, CA) (see FIGURE 6), (d) rabbit anti-mouse glial fibrillary acidic protein IgG (polyclonal, 1:250; GeneTex Inc., San Antonio, TX) (see FIGURE 7), (e) rabbit antihuman/ mouse ionized calcium binding adaptor molecule 1 (IBA-1) IgG (polyclonal, 1:500; Wako Pure Chemical Industries, Ltd, Richmond, VA), (f) mouse anti-human/mouse clone AT8 PHF-1 Tau (monoclonal, 1:200; Pierce Biotechnology Inc., Rockford, IL), (g) rabbit anti-human/mouse TAR DNA-binding protein 43 (TDP43) (1:100; ProteinTech Group Inc., Chicago, IL) (See FIGURE 14), (h) chicken anti-human/mouse β-tubulin 3 (TuJ1 antigen) (polyclonal, 1:100, Aves Labs, Inc., Tigard, OR), (i) rabbit anti-mouse tyrosine hydroxylase (polyclonal, 1:500, Chemicon International, Temecula, CA or polyclonal 1:1000, Affinity BioReagents, Golden, CO) (FIGURE 10), (j) rabbit anti human/mouse anti-pJunser73 IgG (polyclonal, 1:200; Chemicon International, Temecula, CA), (k) rabbit anti human/mouse anti-HSP-70 IgG (polyclonal, 1:200; Chemicon International, Temecula, CA), or (1) rabbit anti human/mouse anti-HSP-25 IgG (polyclonal, 1:100; Chemicon International, Temecula, CA). In each experiment, additional slides were incubated with the primary antibody and the secondary antibody omitted or with secondary antibody and primary antibody omitted to test for nonspecific staining. Where appropriate, positive control slides (Alzheimer's disease patient entorhinal cortex, obtained from Drs. Claudia Schwab and Patrick McGeer of the Kinsmen Laboratory, University of British Columbia, Vancouver, BC, Canada) were also processed as above for comparison. Following overnight incubation with the primary antibody, slides were rinsed for 45 minutes at RT in three changes of PBS. […]
# [3] = test system: Phosphorylated TDP-43 aggregates; assay: TDP-43 immunofluorescence; format: in vivo, CD-1 mice; design: key to Phosphorylated TDP-43 aggregates: - = not present; + = present; conditions: for Phosphorylated TDP-43 aggregates: SG-fed
# Procedure: as §2
# as §3, with “comparison.” for “comparison. Following overnight incubation with the primary antibody, slides were rinsed for 45 minutes at RT in three changes of PBS.”
# [4] = SG-fed group over time, 35 to 52 wk
compound,measurement,setting,value
CCC(C=CC(C)C1CCC2C3CC=C4CC(OC5OC(CO)C(O)C(O)C5O)CCC4(C)C3CCC12C)C(C)C (stereo not drawn) [SG],increase in the time between inversion of the apparatus and falling,"CD-1 mice [1]; SG fed mice, control group showed an increase",did not
same,Wirehang test performance,"CD-1 mice [1]; SG-fed animals, prior to 35 weeks",decline in performance
same,Wirehang,"CD-1 mice [1]; SG-fed vs control, time-point 2, 52 wk",Wirehang* (*p<0.05)
same,Total distance moved,"CD-1 mice [2]; time-point 1, 35 wk",Total distance moved (ns)
same,Total distance to zone border,"CD-1 mice [2]; time-point 1, 35 wk",Total distance to zone border (ns)
same,Total turn angle,"CD-1 mice [2]; time-point 1, 35 wk",Total turn angle (ns)
same,Total distance to zone border,"CD-1 mice [2]; time-point 2, 52 wk",Total distance to zone border* (*p<0.05)
same,Anti-Hsp-70 Lsc,Heat shock protein-70; [4],"Anti-Hsp-70 Lsc (SG-fed group over time) (ns, p=0.1223)"
same,Anti-Hsp-70 Tsc,Heat shock protein-70; [4],"Anti-Hsp-70 Tsc (SG-fed group over time) (ns, p=0.8319)"
same,Anti-Hsp-70 (VHLsc),"Heat shock protein-70; time-point 1, 35 wk",Anti-Hsp-70: +1036%***
same,Anti-Hsp-70 (VHTsc),"Heat shock protein-70; time-point 1, 35 wk","Anti-Hsp-70: (ns, p=0.9697)"
same,Anti-Hsp-70 (VHLsc),"Heat shock protein-70; time-point 2, 52 wk",Anti-Hsp-70: +425%* (VHLsc)
same,Anti-Hsp-70 (VHTsc),"Heat shock protein-70; time-point 2, 52 wk","Anti-Hsp-70: (ns, p=0.2793)"
same,pathologic phosphorylated TDP-43-containing aggregates in the lumbar spinal cord,[3]; SG-fed animals,increased
same,translocation of TDP-43,[3]; SG-fed animals at 35 weeks,No abnormal translocation
same,"Phosphorylated TDP-43 aggregates / TDP-43 pathology, animals affected","[3]; SG-fed group, time-point 2, 52 wk",Two of eight and 2/8
same,Phosphorylated TDP-43 aggregates,"[3]; time-point 1, 35 wk",-
same,Phosphorylated TDP-43 aggregates,"[3]; time-point 2, 52 wk",+
